# From US9050341B2, “Methods of treating drug resistant and other tumors by administering 6,7-dialkoxy quinazoline derivatives” (NATCO PHARMA LIMITED, priority 2009, dated 2015)
# Columns and labels:
# Experiment in all cases: KinomeScan kinase profiling
# Format in all cases: binding
# DMPK2 = target: T1, DMPK2 (Homo sapiens, UniProt Q6DT37)
# T1 construct: purchased Ambit Biosciences Corp (KinomeScan); host or cells: T7 phage in E. coli host derived from BL21
# PDPK1 = target: T2, PDPK1 (Homo sapiens, UniProt O15530)
# T2 construct: host or cells: E. coli host derived from the BL21 strain, infected with T7 phage
# AKT1 = target: T3, AKT1 (Homo sapiens, UniProt P31749)
# T3 construct: host or cells: E. coli host derived from BL21 (T7 phage lysate)
# TAOK1 = target: T4, TAOK1 (Homo sapiens, UniProt Q7L7X3)
# T4 construct: host or cells: E. coli host derived from the BL21 strain, T7 phage lysate
# [1] = target: T5, RPS6KA3 (Kin.Dom.-1-N-terminal) (Homo sapiens, UniProt P51812)
# T5 construct: RPS6KA3 (Kin.Dom.-1-N-terminal); host or cells: E. coli host derived from BL21, T7 phage lysate
# CDC2L1 = target: T6, CDC2L1 (Homo sapiens, UniProt P21127)
# T6 construct: host or cells: T7 phage in E. coli (BL21-derived)
# ROS1 = target: T7, ROS1 (Homo sapiens, UniProt P08922)
# T7 construct: host or cells: E. coli host derived from BL21, T7 phage lysate
# ERK2 = target: T8, ERK2 (Homo sapiens, UniProt P28482)
# T8 construct: host or cells: E. coli host derived from BL21, T7 phage lysate
# LATS2 = target: T9, LATS2 (Homo sapiens, UniProt Q9NRM7)
# T9 construct: host or cells: T7 phage in E. coli host derived from BL21
# CAMK2G = target: T10, CAMK2G (Homo sapiens, UniProt Q13555)
# T10 construct: purchased Ambit Biosciences Corp (KinomeScan); host or cells: E. coli host derived from the BL21 strain, T7 phage
# TGFBR1 = target: T11, TGFBR1 (Homo sapiens, UniProt P36897)
# T11 construct: host or cells: E. coli host derived from the BL21 strain, T7 phage lysate
# CDK9 = target: T12, CDK9 (Homo sapiens, UniProt P50750)
# T12 construct: host or cells: T7 phage in E. coli (BL21-derived)
# [2] = target: T13, RPS6KA2 (Kin.Dom.-1-N-terminal) (Homo sapiens, UniProt Q15349)
# T13 construct: RPS6KA2 (Kin.Dom.-1-N-terminal); host or cells: E. coli host derived from BL21, T7 phage lysate
# TLK2 = target: T14, TLK2 (Homo sapiens, UniProt Q86UE8)
# T14 construct: purchased Ambit Biosciences Corp (KinomeScan); host or cells: E. coli host derived from the BL21 strain (T7 phage lysate)
# DCAMKL2 = target: T15, DCAMKL2 (Homo sapiens, UniProt Q8N568)
# T15 construct: purchased Ambit Biosciences Corp (KinomeScan); host or cells: T7 phage in E. coli host derived from BL21
# CSNK1G3 = target: T16, CSNK1G3 (Homo sapiens, UniProt Q9Y6M4)
# T16 construct: purchased Ambit Biosciences Corp (KinomeScan); host or cells: T7 phage in E. coli host derived from BL21
# YES = target: T17, YES (Homo sapiens, UniProt P07947)
# T17 construct: purchased Ambit Biosciences Corp (KinomeScan); host or cells: E. coli host derived from the BL21 strain (T7 phage lysate)
# ULK2 = target: T18, ULK2 (Homo sapiens, UniProt Q8IYT8)
# T18 construct: purchased Ambit Biosciences Corp (KinomeScan); host or cells: E. coli host derived from the BL21 strain (T7 phage lysate)
# T18 sequence (Q8IYT8 whole entry): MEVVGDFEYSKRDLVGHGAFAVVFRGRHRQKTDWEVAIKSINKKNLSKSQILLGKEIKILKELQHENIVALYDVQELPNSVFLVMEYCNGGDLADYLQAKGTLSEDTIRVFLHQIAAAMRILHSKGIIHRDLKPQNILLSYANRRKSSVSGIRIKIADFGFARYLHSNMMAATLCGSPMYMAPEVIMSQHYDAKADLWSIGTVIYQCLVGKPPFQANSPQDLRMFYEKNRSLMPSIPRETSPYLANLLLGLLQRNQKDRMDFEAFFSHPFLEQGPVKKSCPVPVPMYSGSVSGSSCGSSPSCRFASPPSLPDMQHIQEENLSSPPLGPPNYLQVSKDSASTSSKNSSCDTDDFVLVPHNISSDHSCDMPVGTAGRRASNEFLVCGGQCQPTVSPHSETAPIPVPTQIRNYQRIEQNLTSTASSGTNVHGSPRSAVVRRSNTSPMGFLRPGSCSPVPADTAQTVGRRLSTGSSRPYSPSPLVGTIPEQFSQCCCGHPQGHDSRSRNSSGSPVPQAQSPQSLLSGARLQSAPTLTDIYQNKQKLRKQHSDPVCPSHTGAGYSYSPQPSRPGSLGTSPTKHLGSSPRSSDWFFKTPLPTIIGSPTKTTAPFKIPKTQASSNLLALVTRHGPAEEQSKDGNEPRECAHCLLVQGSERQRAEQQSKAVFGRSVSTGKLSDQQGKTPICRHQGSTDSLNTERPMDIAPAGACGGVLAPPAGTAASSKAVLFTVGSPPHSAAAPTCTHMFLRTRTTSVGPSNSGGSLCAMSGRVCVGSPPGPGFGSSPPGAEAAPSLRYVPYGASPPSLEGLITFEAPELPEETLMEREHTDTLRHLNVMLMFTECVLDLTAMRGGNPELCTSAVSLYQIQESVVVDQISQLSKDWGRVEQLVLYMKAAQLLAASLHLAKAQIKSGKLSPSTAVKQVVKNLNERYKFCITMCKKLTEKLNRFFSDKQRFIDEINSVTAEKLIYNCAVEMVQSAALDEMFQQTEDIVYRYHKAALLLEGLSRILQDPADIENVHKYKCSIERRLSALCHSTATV
# T17 sequence (P07947 whole entry): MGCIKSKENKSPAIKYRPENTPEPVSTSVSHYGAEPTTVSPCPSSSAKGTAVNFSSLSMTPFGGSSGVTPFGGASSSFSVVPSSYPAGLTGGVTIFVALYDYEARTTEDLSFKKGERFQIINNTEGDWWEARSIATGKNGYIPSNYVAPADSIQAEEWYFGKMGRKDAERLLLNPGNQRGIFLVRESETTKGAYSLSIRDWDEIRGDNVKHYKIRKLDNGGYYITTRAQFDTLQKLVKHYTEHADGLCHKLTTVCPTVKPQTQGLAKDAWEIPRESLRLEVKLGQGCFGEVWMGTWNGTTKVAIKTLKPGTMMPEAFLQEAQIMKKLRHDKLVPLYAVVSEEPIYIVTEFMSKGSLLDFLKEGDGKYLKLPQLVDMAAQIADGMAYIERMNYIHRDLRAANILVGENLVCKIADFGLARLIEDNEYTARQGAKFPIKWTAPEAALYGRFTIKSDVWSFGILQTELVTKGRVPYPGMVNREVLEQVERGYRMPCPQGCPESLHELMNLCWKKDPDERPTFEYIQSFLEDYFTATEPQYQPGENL
# T7 sequence (P08922 28-2347): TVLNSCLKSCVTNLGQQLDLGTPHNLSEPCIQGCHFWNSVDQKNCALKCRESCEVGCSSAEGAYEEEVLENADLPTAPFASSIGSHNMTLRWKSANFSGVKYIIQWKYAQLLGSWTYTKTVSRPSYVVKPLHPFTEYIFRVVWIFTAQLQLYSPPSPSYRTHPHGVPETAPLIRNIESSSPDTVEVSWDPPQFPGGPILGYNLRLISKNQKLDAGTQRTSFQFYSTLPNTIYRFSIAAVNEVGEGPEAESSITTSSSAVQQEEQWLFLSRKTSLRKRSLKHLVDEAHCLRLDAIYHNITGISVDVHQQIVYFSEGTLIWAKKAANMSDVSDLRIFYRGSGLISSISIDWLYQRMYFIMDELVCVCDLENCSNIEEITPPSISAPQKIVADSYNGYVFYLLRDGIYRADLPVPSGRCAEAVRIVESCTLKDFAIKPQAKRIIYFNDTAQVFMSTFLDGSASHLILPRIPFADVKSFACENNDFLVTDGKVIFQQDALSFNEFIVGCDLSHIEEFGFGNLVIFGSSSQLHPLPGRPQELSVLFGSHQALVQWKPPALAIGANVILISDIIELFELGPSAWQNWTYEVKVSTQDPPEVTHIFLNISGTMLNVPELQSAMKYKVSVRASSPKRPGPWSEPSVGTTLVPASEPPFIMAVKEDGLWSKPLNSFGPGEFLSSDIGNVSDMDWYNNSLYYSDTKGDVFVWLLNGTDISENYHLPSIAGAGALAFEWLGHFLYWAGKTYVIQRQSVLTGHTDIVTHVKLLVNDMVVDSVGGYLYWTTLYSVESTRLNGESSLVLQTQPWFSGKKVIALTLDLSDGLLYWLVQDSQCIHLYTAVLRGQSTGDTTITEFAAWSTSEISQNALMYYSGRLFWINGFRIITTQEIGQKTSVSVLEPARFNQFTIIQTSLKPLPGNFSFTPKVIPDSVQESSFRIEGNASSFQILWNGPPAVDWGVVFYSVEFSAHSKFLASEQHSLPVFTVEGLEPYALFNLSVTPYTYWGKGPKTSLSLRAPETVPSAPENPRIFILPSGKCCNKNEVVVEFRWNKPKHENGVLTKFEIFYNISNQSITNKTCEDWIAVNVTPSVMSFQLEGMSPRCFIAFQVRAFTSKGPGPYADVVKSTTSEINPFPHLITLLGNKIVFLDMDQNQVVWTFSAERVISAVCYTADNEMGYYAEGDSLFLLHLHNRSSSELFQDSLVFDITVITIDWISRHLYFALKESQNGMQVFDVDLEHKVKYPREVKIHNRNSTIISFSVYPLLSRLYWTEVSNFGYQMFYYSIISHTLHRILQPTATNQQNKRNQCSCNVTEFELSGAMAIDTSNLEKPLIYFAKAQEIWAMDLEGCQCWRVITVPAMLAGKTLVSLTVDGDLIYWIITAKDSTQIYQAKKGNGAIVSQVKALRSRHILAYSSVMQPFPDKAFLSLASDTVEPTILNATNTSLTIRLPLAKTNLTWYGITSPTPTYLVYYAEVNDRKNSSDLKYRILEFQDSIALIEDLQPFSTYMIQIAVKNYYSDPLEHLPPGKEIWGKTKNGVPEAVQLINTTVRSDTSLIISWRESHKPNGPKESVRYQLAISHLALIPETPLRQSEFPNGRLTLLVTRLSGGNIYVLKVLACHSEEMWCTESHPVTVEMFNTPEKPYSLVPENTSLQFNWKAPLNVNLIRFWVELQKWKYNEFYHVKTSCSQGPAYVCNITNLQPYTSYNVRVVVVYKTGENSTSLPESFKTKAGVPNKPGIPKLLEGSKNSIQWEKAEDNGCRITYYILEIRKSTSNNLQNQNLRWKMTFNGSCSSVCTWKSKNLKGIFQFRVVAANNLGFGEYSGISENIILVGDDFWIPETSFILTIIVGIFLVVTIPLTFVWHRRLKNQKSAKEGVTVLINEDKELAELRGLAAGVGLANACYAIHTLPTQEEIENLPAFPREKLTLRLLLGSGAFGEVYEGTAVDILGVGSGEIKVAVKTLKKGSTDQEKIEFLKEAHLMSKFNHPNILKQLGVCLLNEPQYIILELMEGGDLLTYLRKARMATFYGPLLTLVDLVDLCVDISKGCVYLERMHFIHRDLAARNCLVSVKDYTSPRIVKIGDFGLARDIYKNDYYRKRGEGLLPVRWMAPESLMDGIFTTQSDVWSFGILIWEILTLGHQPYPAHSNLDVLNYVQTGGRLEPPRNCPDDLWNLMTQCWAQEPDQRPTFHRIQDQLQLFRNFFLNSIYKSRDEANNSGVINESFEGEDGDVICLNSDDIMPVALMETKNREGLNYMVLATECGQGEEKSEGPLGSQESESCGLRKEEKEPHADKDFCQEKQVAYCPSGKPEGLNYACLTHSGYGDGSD
# T13 sequence (Q15349 59-318 limits assumed): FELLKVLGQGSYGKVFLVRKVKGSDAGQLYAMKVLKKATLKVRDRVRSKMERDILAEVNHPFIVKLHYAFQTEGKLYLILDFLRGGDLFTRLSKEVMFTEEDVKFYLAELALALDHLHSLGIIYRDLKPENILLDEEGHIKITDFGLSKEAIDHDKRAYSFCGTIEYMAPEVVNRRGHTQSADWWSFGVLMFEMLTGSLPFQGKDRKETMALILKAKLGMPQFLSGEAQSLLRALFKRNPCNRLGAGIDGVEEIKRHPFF
# T8 sequence (P28482 whole entry): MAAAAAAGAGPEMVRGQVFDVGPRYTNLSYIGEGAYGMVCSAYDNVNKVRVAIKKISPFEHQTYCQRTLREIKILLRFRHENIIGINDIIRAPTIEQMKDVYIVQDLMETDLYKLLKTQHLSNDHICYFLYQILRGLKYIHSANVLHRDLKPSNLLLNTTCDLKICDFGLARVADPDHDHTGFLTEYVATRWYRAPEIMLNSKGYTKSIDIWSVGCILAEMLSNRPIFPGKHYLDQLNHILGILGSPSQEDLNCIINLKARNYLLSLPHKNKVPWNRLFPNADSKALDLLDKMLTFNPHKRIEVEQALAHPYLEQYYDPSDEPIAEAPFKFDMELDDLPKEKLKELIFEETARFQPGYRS
# T11 sequence (P36897 34-503): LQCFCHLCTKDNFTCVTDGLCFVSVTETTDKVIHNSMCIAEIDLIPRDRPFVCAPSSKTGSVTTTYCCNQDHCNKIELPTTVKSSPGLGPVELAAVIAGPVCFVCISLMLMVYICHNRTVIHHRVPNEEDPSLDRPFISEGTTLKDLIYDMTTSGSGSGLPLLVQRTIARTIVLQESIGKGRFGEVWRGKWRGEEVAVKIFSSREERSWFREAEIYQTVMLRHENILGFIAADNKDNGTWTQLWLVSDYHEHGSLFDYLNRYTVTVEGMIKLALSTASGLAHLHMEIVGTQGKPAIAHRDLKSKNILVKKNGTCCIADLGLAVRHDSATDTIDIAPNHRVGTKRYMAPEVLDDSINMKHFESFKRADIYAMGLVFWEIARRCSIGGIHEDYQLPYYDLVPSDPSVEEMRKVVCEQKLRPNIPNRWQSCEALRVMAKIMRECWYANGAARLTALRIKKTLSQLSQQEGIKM
structure (smiles),measurement,setting,value
"C#Cc1cccc(Nc2ncnc3cc(OC)c(OCCCN4CCOCC4)cc23)c1 [NRC-2694, N-(3-ethylnylphenyl)-7-methoxy-6-[3-(4-morpholinyl)propoxy]-4-quinazolinamine]",% Ctrl @ 10000 nM,DMPK2,61 % Ctrl
same,% Ctrl @ 10000 nM,PDPK1,94 % Ctrl
same,% Ctrl @ 10000 nM,AKT1,100 % Ctrl
same,% Ctrl @ 10000 nM,TAOK1,54 % Ctrl
same,% Ctrl @ 10000 nM,[1],94 % Ctrl
same,% Ctrl @ 10000 nM,CDC2L1,42 % Ctrl
same,% Ctrl @ 10000 nM,ROS1,46 % Ctrl
same,% Ctrl @ 10000 nM,ERK2,100 % Ctrl
same,% Ctrl @ 10000 nM,LATS2,93 % Ctrl
same,% Ctrl @ 10000 nM,CAMK2G,58 % Ctrl
same,% Ctrl @ 10000 nM,TGFBR1,83 % Ctrl
same,% Ctrl @ 10000 nM,CDK9,86 % Ctrl
same,% Ctrl @ 10000 nM,[2],70 % Ctrl
same,% Ctrl @ 10000 nM,TLK2,82 % Ctrl
same,% Ctrl @ 10000 nM,DCAMKL2,69 % Ctrl
same,% Ctrl @ 10000 nM,CSNK1G3,61 % Ctrl
same,% Ctrl @ 10000 nM,YES,41 % Ctrl
same,% Ctrl @ 10000 nM,ULK2,39 % Ctrl
